From US20260053861A1, “CELL COMPOSITIONS AND METHODS OF USING THE SAME” (THE REGENTS OF THE UNIVERSITY OF CALIFORNIA, priority 2022, published 2026)
Where a name gives a salt, the structure may show the parent alone. Read-outs that look alike come from different tables or passages of the source.

System: hPSC-SCs
[1] = HTS viability of hPSC-SCs in the presence of 30 mM glucose, Prestwick library, Table S4

Molecule | z.score.t [1] | z.score.t
CCCCOc1cc(C(=O)NCCN(CC)CC)c2ccccc2n1 [Dibucaine] | −1.214 | –
CCN1C[C@]2(COC)CC[C@H](O)[C@@]34C5C[C@@H]6[C@@H](OC)C[C@](O)(C(CC23)C14)C5[C@H]6OC(C)=O (some centres unmarked) [Condelphine] | – | 2.361
COc1ccc(C(Cl)=C(c2ccc(OC)cc2)c2ccc(OC)cc2)cc1 [Chlorotrianisene] | −0.5169 | –
Foliosidine | – | −0.2802
CN(C)C(=O)Oc1cccc([N+](C)(C)C)c1 [Neostigmine bromide] | – | 1.018
COc1cc(Cc2cnc(N)nc2N)cc(OC)c1OC [Trimethoprim] | 0.2479 | –
Beta-Escin | −0.5583 | –
CCN(CC)CCOCCOC(=O)C1(c2ccccc2)CCCC1 [Carbetapentane citrate] | 0.3024 | –
CCN(CC)CCNC(=O)c1cc(Br)c(N)cc1OC [Bromopride] | −0.3895 | –
CN1CCN(C2=Nc3cc(Cl)ccc3Nc3ccccc32)CC1 [Clozapine] | 1.049 | –
COC(=O)Nc1nc2ccc(C(=O)c3cccs3)cc2[nH]1 [Nocodazole] | −1.329 | –
CC(C)NC[C@@H](O)c1ccc(O)c(O)c1.O=C(O)C(O)C(O)C(=O)O [(+)-Isoproterenol (+)-bitartrate salt] | 0.1019 | –
Cc1c(Cl)cccc1Nc1ccccc1C(=O)O [Tolfenamic acid] | −0.528 | –
CN(C)[C@@H]1C(O)=C(C(=O)NCNCCCC[C@H](N)C(=O)O)C(=O)[C@@]2(O)C(O)=C3C(=O)c4c(O)cccc4[C@@](C)(O)[C@H]3C[C@@H]12 [Lymecycline] | −0.5745 | –
CN1[C@@H]2CC[C@H]1C[C@@H](OC(=O)c1c[nH]c3ccccc13)C2 [Tropisetron HCl] | −0.7595 | –
Cc1ccc(S(=O)(=O)NC(=O)NN2CCCCCC2)cc1 [Tolazamide] | 0.1767 | –
CCOC(=O)C1=C(C)NC(C)=C(C(=O)OC)C1c1cccc([N+](=O)[O-])c1 (centres unmarked) [Nitrendipine] | 0.6177 | –
Mephentermine hemisulfate | – | −0.2359
CC(C)NC[C@@H](O)COc1cccc2ccccc12.Cl [(R)-Propranolol hydrochloride] | −0.04682 | –
CCCCNc1ccc(C(=O)OCCN(C)C)cc1.Cl [TetracaÂ<ne hydrochloride] | – | −0.2276
O.O=C1C(O)=C(O)C(=O)C(O)=C1O [Tetrahydroxy-1,4-quinone monohydrate] | 1.323 | –

Molecule | z.score.t [1] | z.score.t
OC(c1ccccc1)(c1ccccc1)C1CCNCC1 [Azacyclonol] | – | 0.5179
CCN(CC)CCNC(=O)c1cc(S(C)(=O)=O)ccc1OC [Tiapride hydrochloride] | 0.5452 | –
CC1(C)S[C@@H]2[C@H](NC(=O)[C@H](C(=O)O)c3ccsc3)C(=O)N2[C@H]1C(=O)O [Ticarcillin sodium] | −0.6389 | –
C[C@H](O)C(=O)Nc1c(I)c(C(=O)NC(CO)CO)c(I)c(C(=O)NC(CO)CO)c1I [Iopamidol] | −1.025 | –
Cn1cnc2c1c(=O)[nH]c(=O)n2C [Theobromine] | −1.169 | –
C=CCN1CCCC1CNC(=O)c1cc2[nH]nnc2cc1OC (centres unmarked) [Alizapride HCl] | 0.5437 | –
CN1[C@@H](C[C@@H](O)c2ccccc2)CCC[C@H]1C[C@H](O)c1ccccc1.Cl [Lobelanidine hydrochloride] | – | −0.3319
CCn1cc(C(=O)O)c(=O)c2cc3c(cc21)OCO3 [Oxolinic acid] | 1.315 | –
CC(=O)Oc1cc(C(F)(F)F)ccc1C(=O)O [Triflusal] | 1.139 | –
O=C(O)CN(CCN(CC(=O)O)CC(=O)O)CCN(CC(=O)O)CC(=O)O [Pentetic acid] | −0.3461 | –
CO[C@]12C[C@@H](COC(=O)c3cncc(Br)c3)CN(C)[C@@H]1Cc1cn(C)c3cccc2c13 [Nicergoline] | −0.2131 | –
CC(C)NCC(O)c1cc(O)cc(O)c1.CC(C)NCC(O)c1cc(O)cc(O)c1.O=S(=O)(O)O (centres unmarked) | 0.4451 | –
CCc1cccc(CC)c1NC(=O)CN(CC(=O)O)CC(=O)O [Etifenin] | 1.002 | –
O=C(CCCCC(=O)Nc1c(I)cc(I)c(C(=O)O)c1I)Nc1c(I)cc(I)c(C(=O)O)c1I [Iodipamide] | 0.5976 | –
CCN(CC)CCOC(=O)C(Cc1cccc2ccccc12)CC1CCCO1 (centres unmarked) [Nafronyl oxalate] | 2.094 | –
O=C(C1CCCCC1)N1CC(=O)N2CCc3ccccc3C2C1 (centres unmarked) [Praziquantel] | −0.5553 | –
Cc1cc(=O)oc2cc(O)ccc12 [Hymecromone] | 0.9525 | –
C[C@]12CCC(=O)C=C1CC[C@@H]1[C@@H]2[C@@H](O)C[C@@]2(C)[C@H]1CC[C@]2(O)C(=O)CO [Hydrocortisone base] | 1.76 | –
C[C@@H]1O[C@@H](O[C@@H]2C=C3CC[C@@H]4[C@H](CC[C@]5(C)[C@@H](c6ccc(=O)oc6)CC[C@]45O)[C@@]3(C)CC2)[C@H](O)[C@H](O)[C@H]1O [Proscillaridin A] | – | −1.543
CN(C)CCC(c1ccc(Cl)cc1)c1ccccn1 (centres unmarked) [Chlorpheniramine maleate] | 0.5452 | –
Nc1ccccc1S(N)(=O)=O [2-Aminobenzenesulfonamide] | 1.43 | –

Molecule | z.score.t [1] | z.score.t
CN(C)c1ccc(O)c2c1C[C@H]1C[C@H]3[C@H](N(C)C)C(O)=C(C(N)=O)C(=O)[C@@]3(O)C(O)=C1C2=O [Minocycline hydrochloride] | −1.319 | –
Trimipramine maleate salt | 0.2361 | –
CN1[C@@H](CC(=O)c2ccccc2)CCC[C@H]1C[C@H](O)c1ccccc1.Cl [Lobeline alpha (−) hydrochoride] | – | −0.2904
CCOC(=O)[N-]c1cn(N2CCOCC2)n[o+]1 [Molsidomine] | 0.713 | –
C[C@]12CC[C@H](O)C[C@@H]1CC[C@@H]1[C@@H]2CC[C@]2(C)C(=O)CC[C@@H]12 [Epiandrosterone] | – | 1.457
COc1cc2nc(N3CCN(C(=O)c4ccco4)CC3)nc(N)c2cc1OC [Prazosin hydrochloride] | −0.496 | –
CC(=O)O[C@H]1C(=O)[C@@]2(C)[C@H]([C@H](OC(=O)c3ccccc3)[C@]3(O)C[C@H](OC(=O)[C@H](O)[C@@H](NC(=O)c4ccccc4)c4ccccc4)C(C)=C1C3(C)C)[C@]1(OC(C)=O)CO[C@@H]1C[C@@H]2O [Paclitaxel] | −1.418 | –
S(−)Eticlopride hydrochloride | −0.5169 | –
Nc1ccc(S(=O)(=O)Nc2cnc3ccccc3n2)cc1 [Sulfaquinoxaline sodium salt] | 1.117 | –
Eburnamonine (−) | 1.516 | –
c1coc(CNc2ncnc3nc[nH]c23)c1 [6-Furfurylaminopurine] | −0.7183 | –
CC(C)NC[C@@H](O)COc1ccc(CC(N)=O)cc1 [(R)-(+)-Atenolol] | −0.9395 | –
Cc1ccc(C)c(OCCCC(C)(C)C(=O)O)c1 [Gemfibrozil] | 0.4486 | –
NCC(CC(=O)O)c1ccc(Cl)cc1 (racemic) [Baclofen (R,S)] | – | 1.088
Nc1[nH]c(=O)ncc1F [Flucytosine] | −0.05622 | –
COC(=O)Nc1nc2ccc(SC(C)C)cc2[nH]1 [Methiazole] | – | −1.263
CN(C)Cc1c[nH]c2ccccc12 [Gramine] | 1.018 | –
C[N+](C)(C)CCOC(N)=O [Carbachol] | −0.1239 | –
C=N[C@@H](C(=O)N[C@@H]1C(=O)N2[C@@H]1SC(C)(C)[C@@H]2C(=O)O)c1ccccc1 [Metampicillin sodium salt] | −1.069 | –
COc1c2occc2cc2ccc(=O)oc12 [Methoxy-8-psoralen] | 1.124 | –
CCCCOC(=O)c1ccc(O)cc1 [Butylparaben] | – | −0.2359

Molecule | z.score.t [1] | z.score.t
CC(C)[N+]1(C)[C@@H]2CC[C@H]1CC(OC(=O)C(CO)c1ccccc1)C2.[Br-] (some centres unmarked) [Ipratropium bromide] | – | −0.649
CN(C)CCC=C1c2ccccc2CCc2ccccc21.Cl [Amitryptiline hydrochloride] | – | −0.7142
CCCCC[C@H](O)/C=C/[C@H]1[C@H](O)CC(=O)[C@@H]1CCCCCCC(=O)O [Alprostadil] | 0.3375 | –
Deptropine citrate | – | −0.247
C[C@H]1[C@H]2CC[C@H]3[C@@H]4CC=C5C[C@@H](N(C)C)CC[C@]5(C)[C@H]4CC[C@]23CN1C [Conessine] | 0.5822 | –
NCCCC[C@H](N[C@@H](CCc1ccccc1)C(=O)O)C(=O)N1CCC[C@H]1C(=O)O [Lisinopril] | 0.08508 | –
Cc1cccc(C)c1OCC(C)N (centres unmarked) [Mexiletine hydrochloride] | 0.6648 | –
CCC(=O)OCC(=O)[C@@]1(OC(=O)CC)[C@@H](C)C[C@H]2[C@@H]3CCC4=CC(=O)C=C[C@]4(C)[C@@]3(Cl)[C@@H](O)C[C@@]21C [Beclomethasone dipropionate] | −0.2136 | –
CNCCCC12CCC(c3ccccc31)c1ccccc12 [Maprotiline hydrochloride] | −0.865 | –
C[C@]12CC[C@@H]3c4ccc(O)cc4CC[C@H]3[C@@H]1CCC2=O [Estrone] | 1.784 | –
O=C(O)/C=C/c1ccc(O)c(O)c1 [Caffeic acid] | 0.9865 | –
CC[N+](C)(CC)CCOC(=O)C1c2ccccc2Oc2ccccc21 [Methantheline bromide] | −0.3173 | –
COc1c2occc2c(OC)c2c(=O)cc(C)oc12 [Khellin] | 0.7913 | –
COC(=O)[C@H]1[C@H]2C[C@H]3c4[nH]c5ccccc5c4CCN3C[C@H]2CC[C@@H]1O [Rauwolscine hydrochloride] | 1.384 | –
CN1CCN2c3ccccc3Cc3ccccc3C2C1 (centres unmarked) [Mianserine hydrochloride] | 0.8279 | –
C#C[C@]1(O)CC[C@H]2[C@@H]3CCc4cc(OC)ccc4[C@H]3CC[C@@]21C [Ethynylestradiol 3-methyl ether] | 0.9696 | –
O=C1NCCN1c1ncc([N+](=O)[O-])s1 [Niridazole] | 2.422 | –
Cc1cc(C(C)(C)C)cc(C)c1CC1=NCCN1 [Xylometazoline hydrochloride] | −0.827 | –
COc1ccccc1N1CCN(CCCCNC(=O)c2ccc3ccccc3c2)CC1.Cl.Cl [DO 897/99] | – | −0.4139
CCCCc1ccc(C(=O)O)nc1 [Fusaric acid] | – | 1.345
